Source: patent EP4692094A1 (Beijing Konruns Pharmaceutical Co., Ltd., priority 2023, dated 2024)

What was measured:
KAT6B = target: T1, KAT6B (Homo sapiens, UniProt Q8WYB5); test: Enzymatic activity assay for KAT6B acetyltransferase (TR-FRET, histone substrate H3); type: biochemical; details: KAT6B 3 nM, Bio-H3 400 nM, AcCOA 2 µM
T1 construct: purchased active motife (Active Motif) 81224
Procedure: The acetylation effects of KAT6B on histone substrate H3, as well as KAT5, KAT7, and KAT8 on histone substrate H4, were determined using the TR-FRET (time-resolved fluorescence resonance energy transfer) method. The determination was performed according to experimental procedures similar to those in "Pharmacological Experiment I": 1.2 Preparation of compounds: The compounds prepared in the examples were each dissolved in dimethylsulfoxide to give solutions at a concentration of 10 mmol/L. • 1) The compounds in the examples were each diluted from 10 mmol/L stock solution to 0.2 mmol/L, i.e., 1 µL of the compound was added to 49 µL of DMSO, and 3-fold dilution was performed to give 10 concentrations. • 2) 50 nL of the test compounds were transferred to 384 reaction plates using Echo, two replicates for each compound, and the plates were centrifuged at a rotation speed of 1000 rpm for 1 min, the final concentration of dimethylsulfoxide (DMSO) being 0.5%. […]
(§1) For KAT8: • 3) 2.5 µL of the KAT8 enzyme solution at a final concentration of 10 nM was added to the 384 reaction plates in step 2), and the plates were centrifuged at 1000 rpm for 1 min and incubated at 25 °C for 10 min. • 4) 2.5 µL of […] at a final concentration of 300 nM and an AcCOA (acetyl-CoA) reaction solution at a final concentration of 2 µM were added to the 384 reaction plates in step 3), and the plates were centrifuged at a rotation speed of 1000 rpm for 1 min and incubated at 25 °C for 90 min. • 5) 5 µL of Eu-Ab& Ulight-SA detection solution was separately added to the 384 reaction plates in step 4) of the 4 groups described above, and the plates were centrifuged at 1000 rpm for 1 min and incubated at 25 °C for 60 min. • 6) The HTRF […] signals were read using a BMG high-throughput drug-screening multi-mode microplate reader.
The acetylation levels of the histones in the groups were analyzed by the GraphPad Prism 8 software. […]

KAT7 = target: T2, KAT7 (Homo sapiens, UniProt O95251); test: Enzymatic activity assay for KAT7 acetyltransferase (TR-FRET, histone substrate H4); type: biochemical; details: KAT7 15 nM, H4 300 nM, AcCOA 2 µM
T2 construct: purchased ICE S02210F-H21HF
Procedure: The acetylation effects of KAT6B on histone substrate H3, as well as KAT5, KAT7, and KAT8 on histone substrate H4, were determined using the TR-FRET (time-resolved fluorescence resonance energy transfer) method. The determination was performed according to experimental procedures similar to those in "Pharmacological Experiment I": 1.2 Preparation of compounds: The compounds prepared in the examples were each dissolved in dimethylsulfoxide to give solutions at a concentration of 10 mmol/L. • 1) The compounds in the examples were each diluted from 10 mmol/L stock solution to 0.2 mmol/L, i.e., 1 µL of the compound was added to 49 µL of DMSO, and 3-fold dilution was performed to give 10 concentrations. • 2) 50 nL of the test compounds were transferred to 384 reaction plates using Echo, two replicates for each compound, and the plates were centrifuged at a rotation speed of 1000 rpm for 1 min, the final concentration of dimethylsulfoxide (DMSO) being 0.5%.
For KAT7: • 3) 2.5 µL of the KAT7 enzyme solution at a final concentration of 15 nM was added to the 384 reaction plates in step 2), and the plates were centrifuged at 1000 rpm for 1 min and incubated at 25 °C for 10 min. • 4) 2.5 µL of H4 at a final concentration of 300 nM and an AcCOA (acetyl-CoA) reaction solution at a final concentration of 2 µM were added to the 384 reaction plates in step 3), and the plates were centrifuged at a rotation speed of 1000 rpm for 1 min and incubated at 25 °C for 90 min.
as §1
The acetylation levels of the histones in the groups were analyzed by the GraphPad Prism 8 software. The reading of the negative control (0.5% DMSO wells) was set as 0% inhibition rate, and the reading of the positive control (wells with the highest concentration of the control compound) was set as 100% inhibition rate. The inhibition rates were calculated, and then IC50 values (half maximal inhibitory concentration) of test compounds were obtained by using a software nonlinear fitting formula; [formula]
Datapositive control: mean of positive control well values; Datanegative control: mean of negative control well values. Table 5. Enzymatic inhibitory activity of example compounds

CYP3A = test: Inhibitory effect on P450 enzymes in vitro (human liver microsomes), CYP3A; type: in vitro ADME; details: final concentration 10 µM; for inhibition at 5 min, 10 µM: probe midazolam, substrate midazolam, read-out: % inhibition rate CYP3A (midazolam); for inhibition at 10 min, 10 µM: probe testosterone, substrate testosterone, read-out: % inhibition rate CYP3A (testosterone)
Procedure: (§2) 1.1 Preparation of compounds: The compounds prepared in the examples were each dissolved in dimethylsulfoxide to give solutions at a concentration of 2 mmol/L.
(§3) 1.2 Test methods: • 1) Incubation system: human liver microsomes, a MgCl2 solution, a phosphate buffer solution, and a substrate solution were each added a 96-well deep-well plate and mixed homogenously. In the final incubation system, the concentration of the human liver microsomes was 0.2 mg/mL, and the final concentrations of the MgCl2 solution and the phosphate buffer solution were 5 mM and 100 mM, respectively. • 2) 1 µL of the substrate solution was added to the incubation system, and the final concentrations of CYP1A2 phenacetin, 2C8 paclitaxel […], 2C19 mephenytoin, 2D6 midazolam, and 3A midazolam substrates were 40 µM (phenacetin), 5 µM (paclitaxel), 50 µM (mephenytoin), 10 µM (mephenytoin), 5 µM (midazolam), and 50 µM […], respectively. • 3) 1 µL of the example compound or vehicle (DMSO) was added to the incubation system, and the incubation system was pre-warmed for 5 min in a 37 °C water bath before starting the reaction with 20 µL of 10 mM NADPH solution.
(§4) 1.3 Sample treatment: Within the designated time (20 min for phenacetin, 10 min for paclitaxel, 20 min for mephenytoin, 20 min for dextromethorphan, 5 min for midazolam, and 10 min for testosterone), 400 µL of methanol containing the internal standard was added to terminate the reaction, and the mixture was vortexed and mixed homogeneously. Then, the deep-well plate was centrifuged at 3220 g and 4 °C for 40 min. 100 µL of the supernatant was transferred into a new plate, and 150 µL of purified water was added. The mixture was mixed homogenously for LC-MS/MS analysis. Table 11. Inhibitory effects of some compounds in the examples on CYP enzymes

CYP2C19 = target: T3, CYP2C19 (Homo sapiens, UniProt P33261); test: Inhibitory effect on P450 enzymes in vitro (human liver microsomes), CYP2C19; type: in vitro ADME; details: probe mephenytoin, final concentration 10 µM, substrate mephenytoin, read-out: % inhibition rate CYP2C19 (mephenytoin)
T3 construct: from tissue; host or cells: human liver microsomes
Procedure: as §2, §3, §4

CYP2D6 = target: T4, CYP2D6 (Homo sapiens, UniProt P10635); test: Inhibitory effect on P450 enzymes in vitro (human liver microsomes), CYP2D6; type: in vitro ADME; details: probe dextromethorphan, final concentration 10 µM, substrate dextromethorphan, read-out: % inhibition rate CYP2D6 (dextromethorphan)
T4 construct: from tissue; host or cells: human liver microsomes
Procedure: as §2, §3, §4

T2 sequence (O95251 whole entry): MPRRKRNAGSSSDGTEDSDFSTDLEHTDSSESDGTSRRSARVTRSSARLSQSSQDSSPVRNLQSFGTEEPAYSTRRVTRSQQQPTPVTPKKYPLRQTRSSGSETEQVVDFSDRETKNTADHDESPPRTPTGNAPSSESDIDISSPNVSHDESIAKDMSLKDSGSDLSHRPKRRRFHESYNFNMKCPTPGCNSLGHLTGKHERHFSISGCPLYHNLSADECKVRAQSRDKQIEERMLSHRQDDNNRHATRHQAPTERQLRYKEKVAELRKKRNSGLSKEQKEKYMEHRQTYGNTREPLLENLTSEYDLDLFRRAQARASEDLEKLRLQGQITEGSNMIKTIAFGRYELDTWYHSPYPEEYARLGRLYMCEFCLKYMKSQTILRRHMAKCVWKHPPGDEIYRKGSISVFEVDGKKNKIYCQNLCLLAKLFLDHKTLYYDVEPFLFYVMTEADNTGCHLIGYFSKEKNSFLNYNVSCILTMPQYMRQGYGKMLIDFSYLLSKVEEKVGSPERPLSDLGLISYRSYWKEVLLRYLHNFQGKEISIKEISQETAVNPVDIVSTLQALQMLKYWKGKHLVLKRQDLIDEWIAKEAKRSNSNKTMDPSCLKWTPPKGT
T3 sequence (P33261 whole entry): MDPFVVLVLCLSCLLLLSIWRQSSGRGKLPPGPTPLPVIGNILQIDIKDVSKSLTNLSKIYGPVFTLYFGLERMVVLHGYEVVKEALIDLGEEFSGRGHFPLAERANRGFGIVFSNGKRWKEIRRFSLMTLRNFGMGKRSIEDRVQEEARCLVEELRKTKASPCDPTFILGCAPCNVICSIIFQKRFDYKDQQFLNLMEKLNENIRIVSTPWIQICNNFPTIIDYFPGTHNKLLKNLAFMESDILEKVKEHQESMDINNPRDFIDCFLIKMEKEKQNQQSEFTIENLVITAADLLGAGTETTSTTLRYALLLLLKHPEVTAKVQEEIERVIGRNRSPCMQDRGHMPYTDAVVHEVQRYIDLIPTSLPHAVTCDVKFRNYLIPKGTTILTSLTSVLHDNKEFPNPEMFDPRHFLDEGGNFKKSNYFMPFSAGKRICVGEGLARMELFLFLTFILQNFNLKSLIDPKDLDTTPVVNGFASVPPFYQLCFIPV
T4 sequence (P10635 whole entry): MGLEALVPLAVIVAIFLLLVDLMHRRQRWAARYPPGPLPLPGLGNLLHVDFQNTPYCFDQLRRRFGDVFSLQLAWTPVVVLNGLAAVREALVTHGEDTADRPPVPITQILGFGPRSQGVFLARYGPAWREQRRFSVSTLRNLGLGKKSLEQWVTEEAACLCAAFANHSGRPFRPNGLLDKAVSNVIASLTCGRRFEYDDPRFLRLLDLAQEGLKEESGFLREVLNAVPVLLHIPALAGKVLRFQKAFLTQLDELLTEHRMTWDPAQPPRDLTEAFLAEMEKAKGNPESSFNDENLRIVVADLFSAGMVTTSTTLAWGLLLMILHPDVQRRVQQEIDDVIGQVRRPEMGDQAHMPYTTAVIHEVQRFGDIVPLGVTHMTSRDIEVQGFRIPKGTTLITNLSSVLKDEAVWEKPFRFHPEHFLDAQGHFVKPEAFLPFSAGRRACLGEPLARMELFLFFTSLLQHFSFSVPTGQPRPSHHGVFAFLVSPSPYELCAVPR
T1 sequence (Q8WYB5 whole entry): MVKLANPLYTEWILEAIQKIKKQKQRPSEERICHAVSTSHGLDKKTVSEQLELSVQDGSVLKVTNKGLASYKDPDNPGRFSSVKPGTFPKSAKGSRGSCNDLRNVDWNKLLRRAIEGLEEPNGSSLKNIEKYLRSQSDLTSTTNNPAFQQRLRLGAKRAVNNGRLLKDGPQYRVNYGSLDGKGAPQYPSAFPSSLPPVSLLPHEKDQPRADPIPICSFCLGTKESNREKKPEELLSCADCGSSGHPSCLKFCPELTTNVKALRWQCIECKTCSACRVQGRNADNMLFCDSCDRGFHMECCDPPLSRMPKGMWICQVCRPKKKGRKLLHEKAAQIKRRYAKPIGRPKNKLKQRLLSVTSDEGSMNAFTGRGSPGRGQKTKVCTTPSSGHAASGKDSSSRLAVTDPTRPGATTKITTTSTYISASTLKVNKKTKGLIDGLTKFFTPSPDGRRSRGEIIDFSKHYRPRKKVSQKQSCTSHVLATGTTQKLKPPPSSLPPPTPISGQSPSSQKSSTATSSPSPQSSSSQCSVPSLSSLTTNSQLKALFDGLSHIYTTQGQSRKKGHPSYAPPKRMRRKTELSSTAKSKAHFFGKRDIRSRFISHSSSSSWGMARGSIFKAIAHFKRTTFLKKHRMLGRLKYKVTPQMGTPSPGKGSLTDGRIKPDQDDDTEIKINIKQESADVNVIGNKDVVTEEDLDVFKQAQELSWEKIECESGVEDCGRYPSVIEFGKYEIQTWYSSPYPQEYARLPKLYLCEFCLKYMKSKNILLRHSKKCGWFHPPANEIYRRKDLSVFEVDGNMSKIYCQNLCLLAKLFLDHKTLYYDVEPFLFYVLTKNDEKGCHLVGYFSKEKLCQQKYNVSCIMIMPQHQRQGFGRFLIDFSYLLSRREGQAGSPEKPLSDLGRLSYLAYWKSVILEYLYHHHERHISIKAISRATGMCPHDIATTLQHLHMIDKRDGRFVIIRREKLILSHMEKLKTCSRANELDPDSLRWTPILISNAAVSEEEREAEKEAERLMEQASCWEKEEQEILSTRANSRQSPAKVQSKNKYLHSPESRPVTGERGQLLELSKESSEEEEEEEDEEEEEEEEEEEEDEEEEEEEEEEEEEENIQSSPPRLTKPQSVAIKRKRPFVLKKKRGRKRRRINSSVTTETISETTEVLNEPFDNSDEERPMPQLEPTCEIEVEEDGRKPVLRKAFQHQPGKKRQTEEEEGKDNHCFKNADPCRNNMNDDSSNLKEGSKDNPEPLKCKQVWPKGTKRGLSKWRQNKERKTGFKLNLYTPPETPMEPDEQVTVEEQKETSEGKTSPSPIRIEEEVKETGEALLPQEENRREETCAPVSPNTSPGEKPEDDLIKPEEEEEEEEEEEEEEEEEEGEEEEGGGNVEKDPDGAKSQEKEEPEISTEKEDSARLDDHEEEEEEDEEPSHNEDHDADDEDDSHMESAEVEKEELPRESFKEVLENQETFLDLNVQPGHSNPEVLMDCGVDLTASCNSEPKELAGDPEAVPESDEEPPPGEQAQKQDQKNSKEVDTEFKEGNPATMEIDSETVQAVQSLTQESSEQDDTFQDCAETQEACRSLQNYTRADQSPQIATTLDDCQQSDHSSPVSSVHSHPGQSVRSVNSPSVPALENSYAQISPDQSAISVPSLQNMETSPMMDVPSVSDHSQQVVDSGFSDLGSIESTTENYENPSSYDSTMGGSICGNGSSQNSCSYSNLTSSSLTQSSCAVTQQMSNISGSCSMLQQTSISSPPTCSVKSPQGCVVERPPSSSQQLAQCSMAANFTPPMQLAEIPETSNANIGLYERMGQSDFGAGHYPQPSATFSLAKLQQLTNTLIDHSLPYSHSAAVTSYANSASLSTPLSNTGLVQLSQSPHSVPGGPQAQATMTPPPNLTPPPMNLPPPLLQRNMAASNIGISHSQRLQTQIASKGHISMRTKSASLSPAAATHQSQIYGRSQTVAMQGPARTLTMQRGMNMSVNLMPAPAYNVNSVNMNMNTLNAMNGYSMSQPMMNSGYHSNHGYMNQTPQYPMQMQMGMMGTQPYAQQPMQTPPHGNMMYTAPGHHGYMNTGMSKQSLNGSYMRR

Row | Compound | IC50 (KAT6B) [nM] | IC50 (KAT7) [nM] | inhibition at 5 min, 10 µM (CYP3A) [%] | inhibition at 10 min, 10 µM (CYP3A) [%] | inhibition at 20 min, 10 µM (CYP2C19) [%] | inhibition at 20 min, 10 µM (CYP2D6) [%]
1 | COc1cc2c(cc1S(=O)(=O)Nc1noc3cc(Cn4cccn4)nc(OC)c13)CCCC2 [Example 2, N-(6-((1H-Pyrazol-1-yl)methyl)-4-methoxyisoxazolo[4,5-c]pyridin-3-yl)-3-methoxy-5,6,7,8-tetrahydronaphthalene-2-sulfonamide] | 2.34 | 54 | -5.22 | 5.84 | 42.8 | 5.38
2 | COc1ccc2c(c1S(=O)(=O)Nc1noc3cc(Cn4cccn4)nc(OC)c13)OCC2 [Example 9, N-(6-((1H-Pyrazol-1-yl)methyl)-4-methoxyisoxazolo[4,5-c]pyridin-3-yl)-6-methoxy-2,3-dihydrobenzofuran-7-sulfonamide] | – | 47.5 | – | – | – | –
3 | COc1ccc2ccoc2c1S(=O)(=O)Nc1noc2cc(Cn3cccn3)nc(OC)c12 [Example 10, N-(6-((1H-Pyrazol-1-yl)methyl)-4-methoxyisoxazolo[4,5-c]pyridin-3-yl)-6-methoxybenzofuran-7-sulfonamide] | 1.78 | 7.42 | -4.28 | -2.93 | 9.54 | 6.03
4 | COc1cc2c(cc1S(=O)(=O)Nc1noc3cc(Cn4cccn4)nc(OC)c13)OCC2 [Example 59, N-(6-((1H-Pyrazol-1-yl)methyl)-4-methoxyisoxazolo[4,5-c]pyridin-3-yl)-5-methoxy-2,3-dihydrobenzofuran-6-sulfonamide] | 9.5 | 27.4 | -12.1 | -7.66 | 7.62 | 4.62
5 | COc1cc2c(cc1S(=O)(=O)Nc1noc3cc(Cn4cccn4)nc(OC)c13)CCCO2 [Example 76, N-(6-((1H-Pyrazol-1-yl)methyl)-4-methoxyisoxazolo[4,5-c]pyridin-3-yl)-7-methoxy-3,4-dihydro-1H-benzopyran-6-sulfonamide] | – | 86.6 | – | – | – | –
